From ChEMBL document CHEMBL1681676, “The design and synthesis of novel N-hydroxyformamide inhibitors of ADAM-TS4 for the treatment of osteoarthritis” (Bioorg Med Chem Lett, 2011)

Target: 72 kDa type IV collagenase (Homo sapiens, UniProt P08253)
Experiment: Inhibition of recombinant human MMP2 assessed as substrate cleavage by measuring increase in fluorescence after 16 hrs

72 kDa type IV collagenase, sequence (P08253 whole entry): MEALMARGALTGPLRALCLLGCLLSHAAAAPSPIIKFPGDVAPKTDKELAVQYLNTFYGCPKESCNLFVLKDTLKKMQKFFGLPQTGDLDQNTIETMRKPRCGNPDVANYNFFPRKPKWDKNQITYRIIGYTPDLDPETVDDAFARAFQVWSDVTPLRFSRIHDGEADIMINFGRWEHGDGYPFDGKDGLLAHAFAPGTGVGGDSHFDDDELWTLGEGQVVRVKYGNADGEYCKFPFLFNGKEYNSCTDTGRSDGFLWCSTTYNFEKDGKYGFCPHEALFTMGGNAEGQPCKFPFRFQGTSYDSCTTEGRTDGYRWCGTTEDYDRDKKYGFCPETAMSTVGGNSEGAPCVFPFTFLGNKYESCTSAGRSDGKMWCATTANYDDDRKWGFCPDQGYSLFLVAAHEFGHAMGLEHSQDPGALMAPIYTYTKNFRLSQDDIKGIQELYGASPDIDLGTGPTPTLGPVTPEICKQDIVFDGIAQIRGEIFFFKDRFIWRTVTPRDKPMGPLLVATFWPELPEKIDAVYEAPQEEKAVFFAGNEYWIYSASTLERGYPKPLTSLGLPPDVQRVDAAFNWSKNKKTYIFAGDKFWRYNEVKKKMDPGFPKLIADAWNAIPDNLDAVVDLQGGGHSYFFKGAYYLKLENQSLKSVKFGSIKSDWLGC

Structure (SMILES)	IC50
Cc1cc(C)c(CCC2CCN(S(=O)(=O)C[C@](C)(C[C@H](C)c3ncc(F)cn3)N(O)C=O)CC2)cn1	2200 nM
C[C@@H](C[C@@](C)(CS(=O)(=O)N1CCC(CCc2ccc(F)cc2C(F)(F)F)CC1)N(O)C=O)c1ncc(F)cn1	1900 nM
Cc1cc(CCC2CCN(S(=O)(=O)C[C@](C)(C[C@H](C)c3ncc(F)cn3)N(O)C=O)CC2)n(C)n1	26000 nM
Cc1nsc(C)c1CCC1CCN(S(=O)(=O)C[C@](C)(C[C@H](C)c2ncc(F)cn2)N(O)C=O)CC1	2400 nM
Cc1cc(CCC2CCN(S(=O)(=O)C[C@](C)(C[C@H](C)c3ncc(F)cn3)N(O)C=O)CC2)c(C)cn1	12000 nM
Cc1cnc(C)c(CCC2CCN(S(=O)(=O)C[C@](C)(C[C@H](C)c3ncc(F)cn3)N(O)C=O)CC2)c1	35000 nM
Cc1ccc(C)c(CCC2CCN(S(=O)(=O)C[C@](C)(C[C@H](C)c3ncc(F)cn3)N(O)C=O)CC2)c1	4200 nM
C[C@@H](C[C@@](C)(CS(=O)(=O)N1CCC(CCc2cc(F)ccc2Cl)CC1)N(O)C=O)c1ncc(F)cn1	500 nM
Cc1cc(C(F)(F)F)cnc1CCC1CCN(S(=O)(=O)C[C@](C)(C[C@H](C)c2ncc(F)cn2)N(O)C=O)CC1	2500 nM
Cc1cc(F)ccc1CCC1CCN(S(=O)(=O)C[C@](C)(C[C@H](C)c2ncc(F)cn2)N(O)C=O)CC1	120 nM

Target: Matrix metalloproteinase-14 (Homo sapiens, UniProt P50281)
Experiment: Inhibition of recombinant human MMP14 assessed as substrate cleavage by measuring increase in fluorescence after 16 hrs

Structure (SMILES)	IC50
Cc1cc(C)c(CCC2CCN(S(=O)(=O)C[C@](C)(C[C@H](C)c3ncc(F)cn3)N(O)C=O)CC2)cn1	> 3700 nM
C[C@@H](C[C@@](C)(CS(=O)(=O)N1CCC(CCc2ccc(F)cc2C(F)(F)F)CC1)N(O)C=O)c1ncc(F)cn1	3600 nM
Cc1cc(CCC2CCN(S(=O)(=O)C[C@](C)(C[C@H](C)c3ncc(F)cn3)N(O)C=O)CC2)n(C)n1	29000 nM
C[C@@H](C[C@@H](CS(=O)(=O)N1CCC(OCc2ccc(Cl)cc2Cl)CC1)N(O)C=O)c1ncc(F)cn1	180 nM
Cc1nsc(C)c1CCC1CCN(S(=O)(=O)C[C@](C)(C[C@H](C)c2ncc(F)cn2)N(O)C=O)CC1	2600 nM
Cc1cc(CCC2CCN(S(=O)(=O)C[C@](C)(C[C@H](C)c3ncc(F)cn3)N(O)C=O)CC2)c(C)cn1	17000 nM
Cc1cnc(C)c(CCC2CCN(S(=O)(=O)C[C@](C)(C[C@H](C)c3ncc(F)cn3)N(O)C=O)CC2)c1	> 8000 nM
Cc1ccc(C)c(CCC2CCN(S(=O)(=O)C[C@](C)(C[C@H](C)c3ncc(F)cn3)N(O)C=O)CC2)c1	4200 nM
C[C@@H](C[C@@](C)(CS(=O)(=O)N1CCC(CCc2cc(F)ccc2Cl)CC1)N(O)C=O)c1ncc(F)cn1	56 nM
Cc1cc(C(F)(F)F)cnc1CCC1CCN(S(=O)(=O)C[C@](C)(C[C@H](C)c2ncc(F)cn2)N(O)C=O)CC1	40000 nM
Cc1cc(F)ccc1CCC1CCN(S(=O)(=O)C[C@](C)(C[C@H](C)c2ncc(F)cn2)N(O)C=O)CC1	160 nM

Target: T1, A disintegrin and metalloproteinase with thrombospondin motifs 4 (Homo sapiens, UniProt O75173)
T1 sequence (O75173 whole entry): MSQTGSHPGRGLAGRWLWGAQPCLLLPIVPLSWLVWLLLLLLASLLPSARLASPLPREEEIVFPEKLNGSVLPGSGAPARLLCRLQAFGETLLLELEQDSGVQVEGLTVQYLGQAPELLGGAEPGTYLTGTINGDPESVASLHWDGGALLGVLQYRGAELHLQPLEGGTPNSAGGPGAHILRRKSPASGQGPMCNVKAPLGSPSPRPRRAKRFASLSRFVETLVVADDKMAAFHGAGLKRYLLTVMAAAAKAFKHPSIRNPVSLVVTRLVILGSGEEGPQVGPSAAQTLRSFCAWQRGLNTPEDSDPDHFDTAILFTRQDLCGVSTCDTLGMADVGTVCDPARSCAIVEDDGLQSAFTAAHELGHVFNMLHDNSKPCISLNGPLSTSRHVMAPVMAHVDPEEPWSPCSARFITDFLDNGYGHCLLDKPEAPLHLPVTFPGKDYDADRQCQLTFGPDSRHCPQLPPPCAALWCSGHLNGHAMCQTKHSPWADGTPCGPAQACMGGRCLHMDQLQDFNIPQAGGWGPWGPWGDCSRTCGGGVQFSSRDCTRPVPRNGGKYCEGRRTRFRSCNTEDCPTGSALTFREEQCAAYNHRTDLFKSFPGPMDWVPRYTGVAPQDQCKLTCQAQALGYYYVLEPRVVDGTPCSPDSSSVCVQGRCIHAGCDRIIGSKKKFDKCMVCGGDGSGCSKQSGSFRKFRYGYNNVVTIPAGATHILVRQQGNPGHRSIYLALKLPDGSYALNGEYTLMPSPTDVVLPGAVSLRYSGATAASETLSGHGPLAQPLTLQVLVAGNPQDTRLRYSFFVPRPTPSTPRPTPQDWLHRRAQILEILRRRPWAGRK
Experiment: Inhibition of ADAMTS-4 assessed as substrate cleavage by measuring increase in fluorescence after 16 hrs

Structure (SMILES)	IC50
Cc1cc(C)c(CCC2CCN(S(=O)(=O)C[C@](C)(C[C@H](C)c3ncc(F)cn3)N(O)C=O)CC2)cn1	0.68 nM
C[C@@H](C[C@@](C)(CS(=O)(=O)N1CCC(CCc2ccc(F)cc2C(F)(F)F)CC1)N(O)C=O)c1ncc(F)cn1	0.52 nM
Cc1cc(CCC2CCN(S(=O)(=O)C[C@](C)(C[C@H](C)c3ncc(F)cn3)N(O)C=O)CC2)n(C)n1	5.4 nM
C[C@@H](C[C@@H](CS(=O)(=O)N1CCC(OCc2ccc(Cl)cc2Cl)CC1)N(O)C=O)c1ncc(F)cn1	1 nM
Cc1nsc(C)c1CCC1CCN(S(=O)(=O)C[C@](C)(C[C@H](C)c2ncc(F)cn2)N(O)C=O)CC1	0.26 nM
C[C@@H](C[C@@](C)(CS(=O)(=O)N1CCC(NCc2ccc(Cl)cc2Cl)CC1)N(O)C=O)c1ncc(F)cn1	2200 nM
Cc1cc(CCC2CCN(S(=O)(=O)C[C@](C)(C[C@H](C)c3ncc(F)cn3)N(O)C=O)CC2)c(C)cn1	0.43 nM
Cc1cnc(C)c(CCC2CCN(S(=O)(=O)C[C@](C)(C[C@H](C)c3ncc(F)cn3)N(O)C=O)CC2)c1	1.9 nM
Cc1ccc(C)c(CCC2CCN(S(=O)(=O)C[C@](C)(C[C@H](C)c3ncc(F)cn3)N(O)C=O)CC2)c1	0.48 nM
C[C@@H](C[C@@](C)(CS(=O)(=O)N1CCC(CCc2cc(F)ccc2Cl)CC1)N(O)C=O)c1ncc(F)cn1	2.8 nM
Cc1cc(C(F)(F)F)cnc1CCC1CCN(S(=O)(=O)C[C@](C)(C[C@H](C)c2ncc(F)cn2)N(O)C=O)CC1	2.1 nM
Cc1cc(F)ccc1CCC1CCN(S(=O)(=O)C[C@](C)(C[C@H](C)c2ncc(F)cn2)N(O)C=O)CC1	0.18 nM

Target: Collagenase 3 (Homo sapiens, UniProt P45452)
Experiment: Inhibition of recombinant human MMP13 assessed as substrate cleavage by measuring increase in fluorescence after 16 hrs

Structure (SMILES)	IC50
Cc1cc(C)c(CCC2CCN(S(=O)(=O)C[C@](C)(C[C@H](C)c3ncc(F)cn3)N(O)C=O)CC2)cn1	> 4500 nM
C[C@@H](C[C@@](C)(CS(=O)(=O)N1CCC(CCc2ccc(F)cc2C(F)(F)F)CC1)N(O)C=O)c1ncc(F)cn1	16000 nM
Cc1cc(CCC2CCN(S(=O)(=O)C[C@](C)(C[C@H](C)c3ncc(F)cn3)N(O)C=O)CC2)n(C)n1	6700 nM
C[C@@H](C[C@@H](CS(=O)(=O)N1CCC(OCc2ccc(Cl)cc2Cl)CC1)N(O)C=O)c1ncc(F)cn1	180 nM
Cc1nsc(C)c1CCC1CCN(S(=O)(=O)C[C@](C)(C[C@H](C)c2ncc(F)cn2)N(O)C=O)CC1	4600 nM
Cc1cc(CCC2CCN(S(=O)(=O)C[C@](C)(C[C@H](C)c3ncc(F)cn3)N(O)C=O)CC2)c(C)cn1	14000 nM
Cc1cnc(C)c(CCC2CCN(S(=O)(=O)C[C@](C)(C[C@H](C)c3ncc(F)cn3)N(O)C=O)CC2)c1	27000 nM
Cc1ccc(C)c(CCC2CCN(S(=O)(=O)C[C@](C)(C[C@H](C)c3ncc(F)cn3)N(O)C=O)CC2)c1	23000 nM
C[C@@H](C[C@@](C)(CS(=O)(=O)N1CCC(CCc2cc(F)ccc2Cl)CC1)N(O)C=O)c1ncc(F)cn1	570 nM
Cc1cc(C(F)(F)F)cnc1CCC1CCN(S(=O)(=O)C[C@](C)(C[C@H](C)c2ncc(F)cn2)N(O)C=O)CC1	6100 nM
Cc1cc(F)ccc1CCC1CCN(S(=O)(=O)C[C@](C)(C[C@H](C)c2ncc(F)cn2)N(O)C=O)CC1	530 nM

Target: Disintegrin and metalloproteinase domain-containing protein 17 (Homo sapiens, UniProt P78536)
Experiment: Inhibition of TACE assessed as substrate cleavage by measuring increase in fluorescence after 16 hrs

Disintegrin and metalloproteinase domain-containing protein 17, sequence (P78536 whole entry, the tested form may be a part): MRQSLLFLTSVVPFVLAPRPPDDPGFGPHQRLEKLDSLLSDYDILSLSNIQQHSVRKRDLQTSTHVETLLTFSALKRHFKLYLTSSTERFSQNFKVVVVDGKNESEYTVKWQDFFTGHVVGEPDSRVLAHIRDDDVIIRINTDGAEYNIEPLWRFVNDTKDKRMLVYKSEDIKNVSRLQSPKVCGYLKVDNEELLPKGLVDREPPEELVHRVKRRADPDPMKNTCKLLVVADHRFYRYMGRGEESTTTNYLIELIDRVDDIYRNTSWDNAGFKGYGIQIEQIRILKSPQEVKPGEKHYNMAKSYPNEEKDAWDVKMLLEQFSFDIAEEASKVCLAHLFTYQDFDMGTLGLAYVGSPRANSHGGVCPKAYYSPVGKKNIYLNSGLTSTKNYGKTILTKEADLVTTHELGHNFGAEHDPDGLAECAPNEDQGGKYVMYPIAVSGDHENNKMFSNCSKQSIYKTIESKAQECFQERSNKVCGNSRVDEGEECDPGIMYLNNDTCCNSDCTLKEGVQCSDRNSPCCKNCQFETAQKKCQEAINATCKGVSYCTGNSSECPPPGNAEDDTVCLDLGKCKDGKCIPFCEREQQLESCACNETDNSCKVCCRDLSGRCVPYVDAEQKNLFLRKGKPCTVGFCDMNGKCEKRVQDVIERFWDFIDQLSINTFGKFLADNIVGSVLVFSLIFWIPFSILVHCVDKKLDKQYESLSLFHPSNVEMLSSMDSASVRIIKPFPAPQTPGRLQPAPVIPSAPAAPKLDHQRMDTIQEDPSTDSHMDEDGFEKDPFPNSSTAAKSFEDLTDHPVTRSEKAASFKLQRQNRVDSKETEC

Structure (SMILES)	IC50
Cc1cc(C)c(CCC2CCN(S(=O)(=O)C[C@](C)(C[C@H](C)c3ncc(F)cn3)N(O)C=O)CC2)cn1	3000 nM
C[C@@H](C[C@@](C)(CS(=O)(=O)N1CCC(CCc2ccc(F)cc2C(F)(F)F)CC1)N(O)C=O)c1ncc(F)cn1	19 nM
Cc1cc(CCC2CCN(S(=O)(=O)C[C@](C)(C[C@H](C)c3ncc(F)cn3)N(O)C=O)CC2)n(C)n1	2800 nM
Cc1cc(CCC2CCN(S(=O)(=O)C[C@](C)(C[C@H](C)c3ncc(F)cn3)N(O)C=O)CC2)c(C)cn1	230 nM
Cc1cnc(C)c(CCC2CCN(S(=O)(=O)C[C@](C)(C[C@H](C)c3ncc(F)cn3)N(O)C=O)CC2)c1	1400 nM
Cc1ccc(C)c(CCC2CCN(S(=O)(=O)C[C@](C)(C[C@H](C)c3ncc(F)cn3)N(O)C=O)CC2)c1	22 nM
Cc1cc(C(F)(F)F)cnc1CCC1CCN(S(=O)(=O)C[C@](C)(C[C@H](C)c2ncc(F)cn2)N(O)C=O)CC1	24000 nM
Cc1cc(F)ccc1CCC1CCN(S(=O)(=O)C[C@](C)(C[C@H](C)c2ncc(F)cn2)N(O)C=O)CC1	21 nM

Target: T2, Interstitial collagenase (Homo sapiens, UniProt P03956)
T2 sequence (P03956 whole entry): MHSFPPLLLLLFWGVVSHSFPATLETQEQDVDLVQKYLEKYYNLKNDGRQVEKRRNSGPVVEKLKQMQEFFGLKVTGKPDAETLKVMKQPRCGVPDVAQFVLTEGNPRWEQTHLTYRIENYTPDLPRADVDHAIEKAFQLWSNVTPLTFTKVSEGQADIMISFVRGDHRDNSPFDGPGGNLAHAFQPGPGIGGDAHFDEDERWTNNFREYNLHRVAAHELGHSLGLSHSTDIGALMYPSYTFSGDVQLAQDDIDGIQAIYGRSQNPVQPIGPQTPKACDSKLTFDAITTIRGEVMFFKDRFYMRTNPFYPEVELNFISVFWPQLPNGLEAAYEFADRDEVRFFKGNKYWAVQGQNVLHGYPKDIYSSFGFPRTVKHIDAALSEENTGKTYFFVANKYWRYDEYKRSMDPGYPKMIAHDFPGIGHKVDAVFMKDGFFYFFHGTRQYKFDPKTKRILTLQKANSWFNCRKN
Experiment: Inhibition of recombinant human MMP1 assessed as substrate cleavage by measuring increase in fluorescence after 16 hrs

Structure (SMILES)	IC50
Cc1cc(C)c(CCC2CCN(S(=O)(=O)C[C@](C)(C[C@H](C)c3ncc(F)cn3)N(O)C=O)CC2)cn1	> 100000 nM
C[C@@H](C[C@@](C)(CS(=O)(=O)N1CCC(CCc2ccc(F)cc2C(F)(F)F)CC1)N(O)C=O)c1ncc(F)cn1	9700 nM
Cc1cc(CCC2CCN(S(=O)(=O)C[C@](C)(C[C@H](C)c3ncc(F)cn3)N(O)C=O)CC2)n(C)n1	> 10000 nM
C[C@@H](C[C@@H](CS(=O)(=O)N1CCC(OCc2ccc(Cl)cc2Cl)CC1)N(O)C=O)c1ncc(F)cn1	9700 nM
Cc1cc(CCC2CCN(S(=O)(=O)C[C@](C)(C[C@H](C)c3ncc(F)cn3)N(O)C=O)CC2)c(C)cn1	> 100000 nM
Cc1cnc(C)c(CCC2CCN(S(=O)(=O)C[C@](C)(C[C@H](C)c3ncc(F)cn3)N(O)C=O)CC2)c1	55000 nM
Cc1ccc(C)c(CCC2CCN(S(=O)(=O)C[C@](C)(C[C@H](C)c3ncc(F)cn3)N(O)C=O)CC2)c1	> 10000 nM
C[C@@H](C[C@@](C)(CS(=O)(=O)N1CCC(CCc2cc(F)ccc2Cl)CC1)N(O)C=O)c1ncc(F)cn1	> 9600 nM
Cc1cc(C(F)(F)F)cnc1CCC1CCN(S(=O)(=O)C[C@](C)(C[C@H](C)c2ncc(F)cn2)N(O)C=O)CC1	> 79000 nM
Cc1cc(F)ccc1CCC1CCN(S(=O)(=O)C[C@](C)(C[C@H](C)c2ncc(F)cn2)N(O)C=O)CC1	> 8100 nM
